Values of other authors as cited in US6699871B2, “Beta-amino heterocyclic dipeptidyl peptidase inhibitors for the treatment or prevention of diabetes” (Merck & Co., Inc., priority 2001, dated 2004).

Experiments:
hematopoiesis = conditions: mouse, cyclophosphamide-induced neutropenia
DP-IV = molecular target: T1, DP-IV (Homo sapiens, UniProt P27487)
T1 construct: GRF is rapidly degraded in plasma to GRF[3-44]
T1 sequence (P27487 whole entry): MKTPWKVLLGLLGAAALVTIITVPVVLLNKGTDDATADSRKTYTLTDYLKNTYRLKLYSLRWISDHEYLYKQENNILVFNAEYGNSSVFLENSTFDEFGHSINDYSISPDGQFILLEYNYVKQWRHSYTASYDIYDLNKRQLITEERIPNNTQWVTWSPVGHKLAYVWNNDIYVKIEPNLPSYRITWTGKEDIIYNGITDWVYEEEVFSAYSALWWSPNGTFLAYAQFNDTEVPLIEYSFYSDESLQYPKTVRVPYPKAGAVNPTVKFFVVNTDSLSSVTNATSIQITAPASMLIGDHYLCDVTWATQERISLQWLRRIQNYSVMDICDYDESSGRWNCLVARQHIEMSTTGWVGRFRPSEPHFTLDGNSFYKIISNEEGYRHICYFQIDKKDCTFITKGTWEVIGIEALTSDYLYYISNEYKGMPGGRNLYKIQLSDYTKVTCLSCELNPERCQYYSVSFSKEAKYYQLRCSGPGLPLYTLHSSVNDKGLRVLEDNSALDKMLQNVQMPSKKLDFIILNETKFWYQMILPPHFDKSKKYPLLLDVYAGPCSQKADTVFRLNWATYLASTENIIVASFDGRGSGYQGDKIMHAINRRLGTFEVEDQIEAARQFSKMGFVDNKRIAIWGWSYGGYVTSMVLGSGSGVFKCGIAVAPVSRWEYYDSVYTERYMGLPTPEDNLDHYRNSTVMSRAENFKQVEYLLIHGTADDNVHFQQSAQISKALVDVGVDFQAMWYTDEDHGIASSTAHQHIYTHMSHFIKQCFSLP

Row | Compound | effect on hematopoiesis (hematopoiesis) | degradation of GRF in plasma to GRF[3-44] (DP-IV)
1 | CC(C)[C@H](N)C(=O)N1CCC[C@H]1B(O)O [Val-Boro-Pro] | stimulated hematopoiesis | –
2 | CC[C@H](C)[C@H](N)C(=O)N1CCC[C@H]1C(=O)N[C@H](C(=O)O)[C@@H](C)CC [diprotin A] | – | prevented
